From PMC6500773 (Psychopharmacology, 2018)
Like-named read-outs stand apart in the source and are kept apart here.

How the values were obtained:
[1] = target: T1, hDAT (Homo sapiens, UniProt Q01959); experiment: Drug-induced release of preloaded [3H]DA from HEK-hDAT cells; assay type: cell-based; settings: for % maximum release ± sem, hDAT [3H]DA: relative to maximal AUC induced by METH (1 or 10 μM)
[2] = target: T2, hNET (Homo sapiens, UniProt P23975); experiment: Drug-induced release of preloaded [3H]NE from HEK-hNET cells; assay type: cell-based; settings: for EC50: read-out: Drug-induced release of [3H]neurotransmitter EC50 ± sem, hNET [3H]NE, HEK-hNET cells; for % maximum release ± sem, hNET [3H]NE: relative to maximal AUC induced by METH (0.3 or 1 μM)
[3] = target: hSERT (Homo sapiens, UniProt P31645); experiment: Drug-induced release of preloaded [3H]5-HT from HEK-hSERT cells; assay type: cell-based; settings: for releasing efficacy at hSERT: [3H]5-HT release; for % maximum release ± sem, hSERT [3H]5-HT: relative to maximal AUC induced by METH (0.3–1 mM)
[4] = target: T1, hDAT; experiment: Inhibition of [125I]RTI-55 binding, HEK-hDAT membranes; settings: read-out: Inhibition of [125I]RTI-55 binding Ki ± sem, hDAT; HEK-hDAT membranes
[5] = target: T2, hNET; experiment: cell-based; settings: read-out: Inhibition of [3H]neurotransmitter uptake IC50 ± sem, hNET [3H]NE
[6] = target: T2, hNET; experiment: biochemical; assay type: binding; settings: read-out: Inhibition of [125I]RTI-55 binding Ki ± sem, hNET
[7] = target: T1, hDAT; experiment: Inhibition of [3H]DA uptake by HEK-hDAT cells; assay type: cell-based; settings: 1/(DAT IC50) divided by 1/(SERT IC50), uptake; higher = more DAT selective

T1 sequence (Q01959 whole entry): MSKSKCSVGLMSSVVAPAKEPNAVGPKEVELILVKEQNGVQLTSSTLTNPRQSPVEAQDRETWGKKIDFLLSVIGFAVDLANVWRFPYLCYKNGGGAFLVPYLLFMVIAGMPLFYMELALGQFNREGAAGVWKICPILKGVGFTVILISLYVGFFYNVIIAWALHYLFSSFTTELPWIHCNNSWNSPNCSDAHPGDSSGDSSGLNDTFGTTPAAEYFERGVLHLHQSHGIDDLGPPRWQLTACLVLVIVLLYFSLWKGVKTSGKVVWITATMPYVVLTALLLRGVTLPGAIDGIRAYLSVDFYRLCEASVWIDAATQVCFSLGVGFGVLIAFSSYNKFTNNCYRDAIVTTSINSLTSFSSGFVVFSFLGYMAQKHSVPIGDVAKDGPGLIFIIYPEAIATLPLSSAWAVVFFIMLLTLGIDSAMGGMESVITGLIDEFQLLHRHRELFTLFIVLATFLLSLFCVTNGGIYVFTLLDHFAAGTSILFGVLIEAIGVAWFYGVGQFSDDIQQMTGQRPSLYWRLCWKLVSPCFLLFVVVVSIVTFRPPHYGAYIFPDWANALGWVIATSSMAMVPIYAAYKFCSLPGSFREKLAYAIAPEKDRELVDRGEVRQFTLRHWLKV
T2 sequence (P23975 whole entry): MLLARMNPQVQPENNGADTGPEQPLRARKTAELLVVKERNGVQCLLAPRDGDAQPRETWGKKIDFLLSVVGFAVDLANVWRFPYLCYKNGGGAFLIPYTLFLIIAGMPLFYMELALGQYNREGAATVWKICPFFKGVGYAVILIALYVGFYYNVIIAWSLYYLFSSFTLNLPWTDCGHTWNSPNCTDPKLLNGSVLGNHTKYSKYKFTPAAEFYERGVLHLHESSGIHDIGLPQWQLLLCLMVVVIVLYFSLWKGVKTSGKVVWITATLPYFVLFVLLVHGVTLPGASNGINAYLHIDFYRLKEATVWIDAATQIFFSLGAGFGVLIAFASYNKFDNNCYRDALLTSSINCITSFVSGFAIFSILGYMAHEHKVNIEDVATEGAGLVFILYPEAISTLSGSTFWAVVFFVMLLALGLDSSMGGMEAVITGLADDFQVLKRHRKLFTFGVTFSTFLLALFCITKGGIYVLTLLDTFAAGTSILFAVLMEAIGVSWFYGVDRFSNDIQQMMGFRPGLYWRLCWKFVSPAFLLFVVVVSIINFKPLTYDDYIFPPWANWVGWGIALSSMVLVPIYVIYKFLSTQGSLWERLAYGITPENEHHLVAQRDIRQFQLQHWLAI
Chain of hSERT (P31645 whole entry): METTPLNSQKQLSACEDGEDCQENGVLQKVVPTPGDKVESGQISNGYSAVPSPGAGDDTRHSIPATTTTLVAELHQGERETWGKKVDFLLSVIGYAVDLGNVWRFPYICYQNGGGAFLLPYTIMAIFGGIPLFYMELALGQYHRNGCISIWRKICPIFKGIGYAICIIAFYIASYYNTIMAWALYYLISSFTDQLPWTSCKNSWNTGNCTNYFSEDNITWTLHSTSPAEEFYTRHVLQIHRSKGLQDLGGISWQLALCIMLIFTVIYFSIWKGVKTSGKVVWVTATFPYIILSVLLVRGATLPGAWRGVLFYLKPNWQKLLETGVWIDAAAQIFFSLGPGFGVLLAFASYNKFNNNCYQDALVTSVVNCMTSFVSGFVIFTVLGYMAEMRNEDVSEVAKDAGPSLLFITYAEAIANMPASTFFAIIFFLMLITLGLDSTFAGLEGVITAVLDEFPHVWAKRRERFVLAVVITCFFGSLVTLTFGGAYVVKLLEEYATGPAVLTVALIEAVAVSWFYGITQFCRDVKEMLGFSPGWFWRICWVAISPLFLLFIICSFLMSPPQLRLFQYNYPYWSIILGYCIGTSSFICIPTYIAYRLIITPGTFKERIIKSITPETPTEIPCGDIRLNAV

| Structure (SMILES) | releasing efficacy at hDAT ([1]; [3H]DA release) | % maximum release ± sem, hDAT [3H]DA [1] [%] | releasing efficacy at hNET ([2]; [3H]NE release) | EC50 [2] [µM] | % maximum release ± sem, hNET [3H]NE [2] [%] | releasing efficacy at hSERT [3] | % maximum release ± sem, hSERT [3H]5-HT [3] [%] | Ki [4] [µM] | IC50 ([5]; HEK-hNET cells) [µM] | Ki ([6]; HEK-hNET membranes) [µM] | Ratio DAT/SERT [7] | IC50 [5] [µM] | Ki [6] [µM] | fold lower release potency at SERT ([3]; compared to release potency at NET and DAT) [fold] |
| --- | --- | --- | --- | --- | --- | --- | --- | --- | --- | --- | --- | --- | --- | --- |
| CCCC(C(=O)c1ccc(Cl)cc1)N1CCCC1 (stereo not drawn) [4-Cl-α-PVP, 4’-chloro-α–pyrrolidinopentiophenone] | minimal to no releasing efficacy | <1 | minimal to no releasing efficacy | > 10 | 9.4 ± 6.0 | minimal to no releasing efficacy | <1 | 0.061 ± 0.015 | 0.0291 ± 0.0067 | 0.281 ± 0.016 | 83 | – | – | – |
| CCCC(C(=O)c1ccc(F)cc1)N1CCCC1 (stereo not drawn) [4-F-α-PVP, 4-fluoro-α–pyrrolidinopentiophenone] | – | – | – | – | – | – | – | 0.376 ± 0.07 | – | – | 360 | 0.118 | 1.1 | – |
| CC(N)Cc1ccc2ccoc2c1 (stereo not drawn) [6-APB, α-methyl-6-benzofuranethanamine] | – | 68.2 ± 9.0 | – | 0.051 ± 0.012 | 69 ± 12 | fully efficacious releaser | 119 ± 16 | 1.04 ± 0.16 | 0.0198 ± 0.0044 | 2.45 ± 0.2 | 2.4 | – | – | – |
| CCNC(C)Cc1ccc2ccoc2c1 (stereo not drawn) [6-EAPB, N-ethyl-α-methyl-6-benzofuranethanamine] | – | – | – | – | – | – | – | 0.089 ± 0.022 | 0.042 ± 0.014 | 0.772 ± 0.044 | 1.4 | – | – | – |
| CNC(C)Cc1ccc2ccoc2c1 (stereo not drawn) [6-MAPB, N,α-dimethyl-6-benzofuranethanamine] | – | 40.6 ± 8.7 | – | 0.64 ± 0.21 | 60 ± 11 | fully efficacious | 107.0 ± 2.3 | 0.599 ± 0.0099 | 0.0331 ± 0.002 | 1.48 ± 0.27 | 9.5 | – | – | – |
| CCC(C(=O)c1ccc2c(c1)OCO2)N(C)C (stereo not drawn) [Dibutylone, bk-DMBDB] | – | – | – | – | – | – | – | 0.581 ± 0.076 | 0.923 ± 0.044 | 8.4 ± 2.1 | >32 | – | – | – |
| CC(C(=O)c1ccc2c(c1)OCO2)N(C)C (stereo not drawn) [Dimethylone, bk-MDDMA] | – | <1 | – | > 10 | 9.9 ± 2.2 | – | <1 | 4.21 ± 0.27 | 4.2 ± 0.88 | > 10 | >4.1 | – | – | – |
| CNC(C)C(=O)c1ccccc1 (stereo not drawn) [MCAT, methcathinone, reference compound] | – | 79.0 ± 3.2 | – | 0.4 ± 0.12 | 75 ± 10 | – | 65.0 ± 0.6 | 7.52 ± 0.99 | 0.0452 ± 0.0042 | 5.96 ± 0.61 | 130 | – | – | 50 |
| CCCCC(NCC)C(=O)c1ccccc1 (stereo not drawn) [N-Et-Hexedrone, α-ethylaminohexanophenone] | – | – | – | – | – | – | – | 0.171 ± 0.038 | 0.0978 ± 0.0083 | 1.26 ± 0.043 | 100 | – | – | – |
| CCCNC(CCC)C(=O)c1ccccc1 (stereo not drawn) [N-propyl pentedrone, α-propylaminopentiophenone] | – | – | – | – | – | – | – | 0.389 ± 0.067 | 0.306 ± 0.079 | 3.76 ± 0.82 | 330 | – | – | – |
| CCCNC(C)C(=O)c1ccc2c(c1)OCO2 (stereo not drawn) [PRONE, 3,4-methylenedioxy-N-propylcathinone] | – | – | – | – | – | – | – | 6.8 ± 1.9 | 6.04 ± 0.89 | 22.5 ± 8.5 | 0.95 | – | – | – |
| CCCC(C(=O)c1ccc2c(c1)OCO2)N(C)C (stereo not drawn) [bk-DMBDP, N,N-dimethylpentylone] | – | – | – | – | – | – | – | 0.354 ± 0.073 | 0.212 ± 0.068 | 2 ± 0.14 | 11 | – | – | – |
| CCCC(NCC)C(=O)c1ccccc1 (stereo not drawn) [α-EPP, α-ethylaminopentiophenone] | – | – | – | – | – | – | – | 0.182 ± 0.022 | 0.101 ± 0.024 | 0.7 ± 0.18 | 64 | – | – | – |
